Results reported in PMC12670405, “Second-Generation AURKA-Targeting PROTACs: Structural Optimization toward in Vivo Degradation in Neuroblastoma” (Journal of Medicinal Chemistry, 2025).

Experiments:
Test in all cases: KINOMEscan scanMAX
Assay type in all cases: binding
[1] = target: T1, SRPK2 (Homo sapiens, UniProt P78362); conditions: read-out: Percent Control
T1 construct: purchased Eurofins Discovery (DiscoverX KINOMEscan scanMAX)
Protocol: (§1) The kinome-wide binding assay was performed by Eurofins Discovery using the scanMAX screening platform. More information can be found on the Eurofins Discovery Web site.

[2] = target: T2, MYO3A (Homo sapiens, UniProt Q8NEV4); conditions: read-out: Percent Control
T2 construct: purchased Eurofins Discovery (DiscoverX KINOMEscan scanMAX)
Protocol: as §1

[3] = target: T3, LRRK2(G2019S) (Homo sapiens, UniProt Q5S007, G2019S); conditions: read-out: Percent Control
T3 construct: purchased Eurofins Discovery (DiscoverX KINOMEscan scanMAX)
Protocol: as §1

[4] = target: T4, AXL (Homo sapiens, UniProt P30530); conditions: read-out: Percent Control
T4 construct: purchased Eurofins Discovery (DiscoverX KINOMEscan scanMAX)
Protocol: as §1

[5] = target: T5, MST3 (Homo sapiens, UniProt Q9Y6E0); conditions: read-out: Percent Control
T5 construct: purchased Eurofins Discovery (DiscoverX KINOMEscan scanMAX)
Protocol: as §1

[6] = target: T6, CDK4-cyclinD1 (Homo sapiens, UniProt P11802); conditions: read-out: Percent Control
T6 construct: purchased Eurofins Discovery (DiscoverX KINOMEscan scanMAX)
Protocol: as §1

[7] = target: T7, ULK1 (Homo sapiens, UniProt O75385); conditions: read-out: Percent Control
T7 construct: purchased Eurofins Discovery (DiscoverX KINOMEscan scanMAX)
Protocol: as §1

[8] = target: T8, NEK3 (Homo sapiens, UniProt P51956); conditions: read-out: Percent Control
T8 construct: purchased Eurofins Discovery (DiscoverX KINOMEscan scanMAX)
Protocol: as §1

[9] = target: T9, YSK4 (Homo sapiens, UniProt Q56UN5); conditions: read-out: Percent Control
T9 construct: purchased Eurofins Discovery (DiscoverX KINOMEscan scanMAX)
Protocol: as §1

[10] = target: T10, CLK1 (Homo sapiens, UniProt P49759); conditions: read-out: Percent Control
T10 construct: purchased Eurofins Discovery (DiscoverX KINOMEscan scanMAX)
Protocol: as §1

[11] = target: T11, CSNK1G2 (Homo sapiens, UniProt P78368); conditions: read-out: Percent Control
T11 construct: purchased Eurofins Discovery (DiscoverX KINOMEscan scanMAX)
Protocol: as §1

[12] = target: T12, EPHA6 (Homo sapiens, UniProt Q9UF33); conditions: read-out: Percent Control
T12 construct: purchased Eurofins Discovery (DiscoverX KINOMEscan scanMAX)
Protocol: as §1

[13] = target: T13, CSNK1A1 (Homo sapiens, UniProt P48729); conditions: read-out: Percent Control
T13 construct: purchased Eurofins Discovery (DiscoverX KINOMEscan scanMAX)
Protocol: as §1

[14] = target: T14, S6K1 (Homo sapiens, UniProt P23443); conditions: read-out: Percent Control
T14 construct: purchased Eurofins Discovery (DiscoverX KINOMEscan scanMAX)
Protocol: as §1

[15] = target: T15, PIP5K2C (Homo sapiens, UniProt Q8TBX8); conditions: read-out: Percent Control
T15 construct: purchased Eurofins Discovery (DiscoverX KINOMEscan scanMAX)
Protocol: as §1

[16] = target: T16, PRKX (Homo sapiens, UniProt P51817); conditions: read-out: Percent Control
T16 construct: purchased Eurofins Discovery (DiscoverX KINOMEscan scanMAX)
Protocol: as §1

[17] = target: T17, MYO3B (Homo sapiens, UniProt Q8WXR4); conditions: read-out: Percent Control
T17 construct: purchased Eurofins Discovery (DiscoverX KINOMEscan scanMAX)
Protocol: as §1

[18] = target: T18, EPHB6 (Homo sapiens, UniProt O15197); conditions: read-out: Percent Control
T18 construct: purchased Eurofins Discovery (DiscoverX KINOMEscan scanMAX)
Protocol: as §1

[19] = target: T19, FLT3(R834Q) (Homo sapiens, UniProt P36888, R834Q); conditions: read-out: Percent Control
T19 construct: purchased Eurofins Discovery (DiscoverX KINOMEscan scanMAX)
Protocol: as §1

[20] = target: T20, GRK3 (Homo sapiens, UniProt P35626); conditions: read-out: Percent Control
T20 construct: purchased Eurofins Discovery (DiscoverX KINOMEscan scanMAX)
Protocol: as §1

[21] = target: T21, DAPK1 (Homo sapiens, UniProt P53355); conditions: read-out: Percent Control
T21 construct: purchased Eurofins Discovery (DiscoverX KINOMEscan scanMAX)
Protocol: as §1

[22] = target: T22, ABL1(Y253F)-phosphorylated (Homo sapiens, UniProt P00519, Y253F); conditions: read-out: Percent Control
T22 construct: purchased Eurofins Discovery (DiscoverX KINOMEscan scanMAX)
Protocol: as §1

[23] = target: T23, SRPK1 (Homo sapiens, UniProt Q96SB4); conditions: read-out: Percent Control
T23 construct: purchased Eurofins Discovery (DiscoverX KINOMEscan scanMAX)
Protocol: as §1

[24] = tested on: EGFR(L747-T751del,Sins)
Protocol: as §1

[25] = tested on: FLT3(ITD)
Protocol: as §1

[26] = target: T24, MAP3K3 (Homo sapiens, UniProt Q99759); conditions: read-out: Percent Control
T24 construct: purchased Eurofins Discovery (DiscoverX KINOMEscan scanMAX)
Protocol: as §1

[27] = target: T25, ICK (Homo sapiens, UniProt Q9UPZ9); conditions: read-out: Percent Control
T25 construct: purchased Eurofins Discovery (DiscoverX KINOMEscan scanMAX)
Protocol: as §1

[28] = target: T26, TNNI3K (Homo sapiens, UniProt Q59H18); conditions: read-out: Percent Control
T26 construct: purchased Eurofins Discovery (DiscoverX KINOMEscan scanMAX)
Protocol: as §1

[29] = target: T27, TNK2 (Homo sapiens, UniProt Q07912); conditions: read-out: Percent Control
T27 construct: purchased Eurofins Discovery (DiscoverX KINOMEscan scanMAX)
Protocol: as §1

[30] = target: T28, RSK2(Kin.Dom.1-N-terminal) (Homo sapiens, UniProt P51812); conditions: read-out: Percent Control
T28 construct: RSK2(Kin.Dom.1-N-terminal); purchased Eurofins Discovery (DiscoverX KINOMEscan scanMAX)
Protocol: as §1

[31] = target: T29, MARK2 (Homo sapiens, UniProt Q7KZI7); conditions: read-out: Percent Control
T29 construct: purchased Eurofins Discovery (DiscoverX KINOMEscan scanMAX)
Protocol: as §1

[32] = target: T30, SNRK (Homo sapiens, UniProt Q9NRH2); conditions: read-out: Percent Control
T30 construct: purchased Eurofins Discovery (DiscoverX KINOMEscan scanMAX)
Protocol: as §1

[33] = target: T31, SIK (Homo sapiens, UniProt P57059); conditions: read-out: Percent Control
T31 construct: purchased Eurofins Discovery (DiscoverX KINOMEscan scanMAX)
Protocol: as §1

[34] = target: T32, CAMK2B (Homo sapiens, UniProt Q13554); conditions: read-out: Percent Control
T32 construct: purchased Eurofins Discovery (DiscoverX KINOMEscan scanMAX)
Protocol: as §1

T10 sequence (P49759 whole entry): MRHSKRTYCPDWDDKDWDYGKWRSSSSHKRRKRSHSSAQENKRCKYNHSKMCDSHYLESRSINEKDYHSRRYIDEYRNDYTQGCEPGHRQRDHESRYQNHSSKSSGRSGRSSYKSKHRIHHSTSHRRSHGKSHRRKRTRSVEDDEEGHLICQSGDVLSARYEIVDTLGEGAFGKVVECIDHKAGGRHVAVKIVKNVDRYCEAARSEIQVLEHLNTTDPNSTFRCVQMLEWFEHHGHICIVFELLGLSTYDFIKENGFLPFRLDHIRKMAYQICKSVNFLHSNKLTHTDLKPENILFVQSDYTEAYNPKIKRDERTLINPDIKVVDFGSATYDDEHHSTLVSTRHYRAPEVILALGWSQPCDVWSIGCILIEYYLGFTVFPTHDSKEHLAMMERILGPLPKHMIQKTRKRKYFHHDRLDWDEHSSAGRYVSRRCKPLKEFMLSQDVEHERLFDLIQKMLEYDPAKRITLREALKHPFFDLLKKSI
T5 sequence (Q9Y6E0 whole entry): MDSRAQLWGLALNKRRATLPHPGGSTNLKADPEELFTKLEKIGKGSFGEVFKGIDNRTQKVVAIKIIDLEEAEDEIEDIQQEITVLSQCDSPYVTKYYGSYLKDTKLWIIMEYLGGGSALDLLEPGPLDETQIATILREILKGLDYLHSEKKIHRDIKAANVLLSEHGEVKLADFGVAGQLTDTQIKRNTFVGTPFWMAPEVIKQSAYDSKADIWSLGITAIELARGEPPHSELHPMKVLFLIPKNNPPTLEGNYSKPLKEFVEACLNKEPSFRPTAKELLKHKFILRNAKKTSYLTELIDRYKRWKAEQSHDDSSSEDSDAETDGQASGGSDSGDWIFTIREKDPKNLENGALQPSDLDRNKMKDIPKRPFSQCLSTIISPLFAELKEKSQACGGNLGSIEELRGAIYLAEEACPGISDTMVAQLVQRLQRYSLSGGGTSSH
T8 sequence (P51956 whole entry): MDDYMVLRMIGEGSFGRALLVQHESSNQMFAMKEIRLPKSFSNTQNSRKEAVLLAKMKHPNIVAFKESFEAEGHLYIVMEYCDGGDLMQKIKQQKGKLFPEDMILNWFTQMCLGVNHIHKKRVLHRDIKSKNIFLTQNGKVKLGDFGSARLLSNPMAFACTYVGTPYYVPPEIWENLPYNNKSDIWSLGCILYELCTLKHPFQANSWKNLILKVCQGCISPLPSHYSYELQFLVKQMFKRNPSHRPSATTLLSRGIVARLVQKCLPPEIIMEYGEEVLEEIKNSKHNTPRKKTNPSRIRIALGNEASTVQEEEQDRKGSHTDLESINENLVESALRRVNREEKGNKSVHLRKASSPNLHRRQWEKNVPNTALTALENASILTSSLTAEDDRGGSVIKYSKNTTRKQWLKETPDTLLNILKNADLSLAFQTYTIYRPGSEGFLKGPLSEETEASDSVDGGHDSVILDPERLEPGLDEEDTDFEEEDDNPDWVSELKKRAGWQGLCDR
T20 sequence (P35626 whole entry): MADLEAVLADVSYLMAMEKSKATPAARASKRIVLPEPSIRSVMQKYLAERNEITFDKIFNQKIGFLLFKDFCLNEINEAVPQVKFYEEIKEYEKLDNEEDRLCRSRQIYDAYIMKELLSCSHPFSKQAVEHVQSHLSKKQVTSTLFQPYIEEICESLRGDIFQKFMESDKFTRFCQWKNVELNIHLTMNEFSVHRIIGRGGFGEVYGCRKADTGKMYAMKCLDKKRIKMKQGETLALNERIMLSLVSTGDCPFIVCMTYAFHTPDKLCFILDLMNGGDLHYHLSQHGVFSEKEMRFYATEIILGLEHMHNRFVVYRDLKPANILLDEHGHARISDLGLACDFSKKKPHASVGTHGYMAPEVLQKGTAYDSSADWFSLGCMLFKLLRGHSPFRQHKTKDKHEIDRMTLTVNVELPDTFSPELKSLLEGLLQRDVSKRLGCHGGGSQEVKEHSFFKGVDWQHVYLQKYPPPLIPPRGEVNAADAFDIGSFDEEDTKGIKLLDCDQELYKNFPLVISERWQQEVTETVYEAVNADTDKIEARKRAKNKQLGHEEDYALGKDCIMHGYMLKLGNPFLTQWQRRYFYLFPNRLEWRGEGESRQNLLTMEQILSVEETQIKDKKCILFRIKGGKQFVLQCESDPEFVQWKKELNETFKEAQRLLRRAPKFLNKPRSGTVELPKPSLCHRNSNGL
T24 sequence (Q99759 whole entry): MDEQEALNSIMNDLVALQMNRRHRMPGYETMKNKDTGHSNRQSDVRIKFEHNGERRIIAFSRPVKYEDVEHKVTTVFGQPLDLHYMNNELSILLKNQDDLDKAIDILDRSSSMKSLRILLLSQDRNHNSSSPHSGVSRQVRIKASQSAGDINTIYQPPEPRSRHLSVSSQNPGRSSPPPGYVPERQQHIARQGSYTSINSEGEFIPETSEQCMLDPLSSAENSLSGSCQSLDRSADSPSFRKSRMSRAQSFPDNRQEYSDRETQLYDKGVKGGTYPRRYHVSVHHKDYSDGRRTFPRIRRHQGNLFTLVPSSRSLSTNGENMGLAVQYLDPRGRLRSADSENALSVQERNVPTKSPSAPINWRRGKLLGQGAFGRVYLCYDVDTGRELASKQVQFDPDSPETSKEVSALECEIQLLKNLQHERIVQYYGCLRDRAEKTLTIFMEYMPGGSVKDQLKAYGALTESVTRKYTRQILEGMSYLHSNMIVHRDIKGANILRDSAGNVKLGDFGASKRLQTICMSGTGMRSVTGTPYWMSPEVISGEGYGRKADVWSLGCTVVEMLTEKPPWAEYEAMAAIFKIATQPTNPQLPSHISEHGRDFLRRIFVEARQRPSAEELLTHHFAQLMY
T9 sequence (Q56UN5 whole entry): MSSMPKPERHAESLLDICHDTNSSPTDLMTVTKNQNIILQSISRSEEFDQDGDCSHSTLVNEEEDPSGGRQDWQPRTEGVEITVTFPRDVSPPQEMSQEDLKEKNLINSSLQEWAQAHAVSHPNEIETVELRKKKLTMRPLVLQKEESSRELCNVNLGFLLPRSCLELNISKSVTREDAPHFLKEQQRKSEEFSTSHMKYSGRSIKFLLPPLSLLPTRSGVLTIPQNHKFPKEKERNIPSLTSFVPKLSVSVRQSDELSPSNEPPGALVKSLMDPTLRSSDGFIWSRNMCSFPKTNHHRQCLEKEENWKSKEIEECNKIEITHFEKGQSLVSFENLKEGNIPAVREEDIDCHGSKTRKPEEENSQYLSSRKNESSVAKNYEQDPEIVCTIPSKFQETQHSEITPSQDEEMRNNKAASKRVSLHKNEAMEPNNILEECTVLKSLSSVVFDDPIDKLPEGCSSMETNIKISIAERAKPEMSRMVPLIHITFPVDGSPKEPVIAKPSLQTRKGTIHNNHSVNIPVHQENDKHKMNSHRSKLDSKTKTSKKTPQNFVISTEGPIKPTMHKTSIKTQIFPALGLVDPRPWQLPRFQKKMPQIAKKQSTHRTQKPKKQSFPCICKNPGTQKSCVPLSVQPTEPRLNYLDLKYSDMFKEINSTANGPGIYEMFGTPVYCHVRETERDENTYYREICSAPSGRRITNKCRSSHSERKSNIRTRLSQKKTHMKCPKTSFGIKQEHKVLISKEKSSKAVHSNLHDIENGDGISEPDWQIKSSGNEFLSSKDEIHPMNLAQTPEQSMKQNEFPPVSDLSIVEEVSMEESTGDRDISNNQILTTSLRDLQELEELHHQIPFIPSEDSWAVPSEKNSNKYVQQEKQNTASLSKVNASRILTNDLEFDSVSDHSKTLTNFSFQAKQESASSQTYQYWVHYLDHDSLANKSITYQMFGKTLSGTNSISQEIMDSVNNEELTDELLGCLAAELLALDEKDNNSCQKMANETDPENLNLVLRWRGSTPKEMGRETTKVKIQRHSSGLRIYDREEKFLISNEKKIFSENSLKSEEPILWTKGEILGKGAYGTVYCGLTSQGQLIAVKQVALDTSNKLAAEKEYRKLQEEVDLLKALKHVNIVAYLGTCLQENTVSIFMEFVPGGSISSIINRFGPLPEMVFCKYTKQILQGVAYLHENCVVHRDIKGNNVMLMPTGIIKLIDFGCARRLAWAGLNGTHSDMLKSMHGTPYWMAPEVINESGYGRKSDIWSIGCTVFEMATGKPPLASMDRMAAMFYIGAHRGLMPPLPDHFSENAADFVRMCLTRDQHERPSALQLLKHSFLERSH
T15 sequence (Q8TBX8 whole entry): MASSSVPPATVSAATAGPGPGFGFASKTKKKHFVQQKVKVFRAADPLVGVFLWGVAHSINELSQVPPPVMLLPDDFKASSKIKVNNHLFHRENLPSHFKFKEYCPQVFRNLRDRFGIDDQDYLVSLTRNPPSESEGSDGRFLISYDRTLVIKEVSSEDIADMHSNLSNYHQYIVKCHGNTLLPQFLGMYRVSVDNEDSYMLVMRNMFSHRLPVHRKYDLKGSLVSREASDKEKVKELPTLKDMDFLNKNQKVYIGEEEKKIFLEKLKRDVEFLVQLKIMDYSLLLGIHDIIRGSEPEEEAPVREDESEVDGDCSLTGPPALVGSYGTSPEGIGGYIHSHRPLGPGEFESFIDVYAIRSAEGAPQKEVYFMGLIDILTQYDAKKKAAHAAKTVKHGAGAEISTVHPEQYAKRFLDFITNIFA
T28 sequence (P51812 1-397 limits assumed): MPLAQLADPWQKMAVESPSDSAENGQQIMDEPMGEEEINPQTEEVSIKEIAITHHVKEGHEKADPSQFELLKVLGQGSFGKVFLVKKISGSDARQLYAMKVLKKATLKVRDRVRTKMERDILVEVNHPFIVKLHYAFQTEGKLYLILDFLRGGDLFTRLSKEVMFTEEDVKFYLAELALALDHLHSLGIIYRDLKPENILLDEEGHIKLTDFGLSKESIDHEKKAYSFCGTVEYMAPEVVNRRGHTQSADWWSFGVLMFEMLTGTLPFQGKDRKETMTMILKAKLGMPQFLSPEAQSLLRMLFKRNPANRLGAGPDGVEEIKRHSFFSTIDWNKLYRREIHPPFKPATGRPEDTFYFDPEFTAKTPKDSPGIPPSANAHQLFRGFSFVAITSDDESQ

Cc1cc(Nc2ccc(F)c(CC3(C(=O)N4CCC(F)(CN5CCN(c6ccc(N7CCC(=O)NC7=O)cn6)CC5)CC4)CCN(Cc4cccc(Cl)c4F)CC3)n2)n[nH]1 [SK5527]
remaining binding at 0.1 µM ([1]; 100 nM): 93% | remaining binding at 1 µM ([1]; 1000 nM): 79% | remaining binding at 0.1 µM ([2]; 100 nM): 100% | remaining binding at 1 µM ([2]; 1000 nM): 100% | remaining binding at 0.1 µM ([3]; 100 nM): 73% | remaining binding at 1 µM ([3]; 1000 nM): 67% | remaining binding at 0.1 µM ([4]; 100 nM): 36% | remaining binding at 1 µM ([4]; 1000 nM): 3.3% | remaining binding at 0.1 µM ([5]; 100 nM): 100% | remaining binding at 1 µM ([5]; 1000 nM): 100% | remaining binding at 0.1 µM ([6]; 100 nM): 100% | remaining binding at 1 µM ([6]; 1000 nM): 87% | remaining binding at 0.1 µM ([7]; 100 nM): 92% | remaining binding at 1 µM ([7]; 1000 nM): 91% | remaining binding at 0.1 µM ([8]; 100 nM): 88% | remaining binding at 1 µM ([8]; 1000 nM): 61% | remaining binding at 0.1 µM ([9]; 100 nM): 72% | remaining binding at 1 µM ([9]; 1000 nM): 72% | remaining binding at 0.1 µM ([10]; 100 nM): 92% | remaining binding at 1 µM ([10]; 1000 nM): 77% | remaining binding at 0.1 µM ([11]; 100 nM): 98% | remaining binding at 1 µM ([11]; 1000 nM): 93% | remaining binding at 0.1 µM ([12]; 100 nM): 100% | remaining binding at 1 µM ([12]; 1000 nM): 93% | remaining binding at 0.1 µM ([13]; 100 nM): 100% | remaining binding at 1 µM ([13]; 1000 nM): 100% | remaining binding at 0.1 µM ([14]; 100 nM): 100% | remaining binding at 1 µM ([14]; 1000 nM): 100% | remaining binding at 0.1 µM ([15]; 100 nM): 100% | remaining binding at 1 µM ([15]; 1000 nM): 100% | remaining binding at 0.1 µM ([16]; 100 nM): 79% | remaining binding at 1 µM ([16]; 1000 nM): 96% | remaining binding at 0.1 µM ([17]; 100 nM): 100% | remaining binding at 1 µM ([17]; 1000 nM): 100% | remaining binding at 0.1 µM ([18]; 100 nM): 93% | remaining binding at 1 µM ([18]; 1000 nM): 85% | remaining binding at 0.1 µM ([19]; 100 nM): 86% | remaining binding at 1 µM ([19]; 1000 nM): 75% | remaining binding at 0.1 µM ([20]; 100 nM): 100% | remaining binding at 1 µM ([20]; 1000 nM): 100% | remaining binding at 0.1 µM ([21]; 100 nM): 85% | remaining binding at 1 µM ([21]; 1000 nM): 81% | remaining binding at 0.1 µM ([22]; 100 nM): 63% | remaining binding at 1 µM ([22]; 1000 nM): 36% | remaining binding at 0.1 µM ([23]; 100 nM): 93% | remaining binding at 1 µM ([23]; 1000 nM): 100% | Percent Control ([24]; 100 nM): 83% | Percent Control ([24]; 1000 nM): 74% | Percent Control ([25]; 100 nM): 89% | Percent Control ([25]; 1000 nM): 94% | remaining binding at 0.1 µM ([26]; 100 nM): 100% | remaining binding at 1 µM ([26]; 1000 nM): 96% | remaining binding at 0.1 µM ([27]; 100 nM): 92% | remaining binding at 1 µM ([27]; 1000 nM): 48% | remaining binding at 0.1 µM ([28]; 100 nM): 73% | remaining binding at 1 µM ([28]; 1000 nM): 70% | remaining binding at 0.1 µM ([29]; 100 nM): 62% | remaining binding at 1 µM ([29]; 1000 nM): 25% | remaining binding at 0.1 µM ([30]; 100 nM): 80% | remaining binding at 1 µM ([30]; 1000 nM): 68% | remaining binding at 0.1 µM ([31]; 100 nM): 91% | remaining binding at 1 µM ([31]; 1000 nM): 62% | remaining binding at 0.1 µM ([32]; 100 nM): 71% | remaining binding at 1 µM ([32]; 1000 nM): 53% | remaining binding at 0.1 µM ([33]; 100 nM): 93% | remaining binding at 1 µM ([33]; 1000 nM): 59% | remaining binding at 0.1 µM ([34]; 100 nM): 100% | remaining binding at 1 µM ([34]; 1000 nM): 100%
